As a reminder, the IC50 is the midpoint of a concentration-inhibition curve.

Calls of active or inactive are those of the source.

This is an account of results in ChEMBL document CHEMBL1153076, “Effect of flavonoids on androgen and glucocorticoid receptors based on in vitro reporter gene assay” (Bioorg Med Chem Lett, 2009).

Assay [1] addresses T1, Androgen receptor (Homo sapiens) (UniProt P10275).
T1 sequence (whole entry): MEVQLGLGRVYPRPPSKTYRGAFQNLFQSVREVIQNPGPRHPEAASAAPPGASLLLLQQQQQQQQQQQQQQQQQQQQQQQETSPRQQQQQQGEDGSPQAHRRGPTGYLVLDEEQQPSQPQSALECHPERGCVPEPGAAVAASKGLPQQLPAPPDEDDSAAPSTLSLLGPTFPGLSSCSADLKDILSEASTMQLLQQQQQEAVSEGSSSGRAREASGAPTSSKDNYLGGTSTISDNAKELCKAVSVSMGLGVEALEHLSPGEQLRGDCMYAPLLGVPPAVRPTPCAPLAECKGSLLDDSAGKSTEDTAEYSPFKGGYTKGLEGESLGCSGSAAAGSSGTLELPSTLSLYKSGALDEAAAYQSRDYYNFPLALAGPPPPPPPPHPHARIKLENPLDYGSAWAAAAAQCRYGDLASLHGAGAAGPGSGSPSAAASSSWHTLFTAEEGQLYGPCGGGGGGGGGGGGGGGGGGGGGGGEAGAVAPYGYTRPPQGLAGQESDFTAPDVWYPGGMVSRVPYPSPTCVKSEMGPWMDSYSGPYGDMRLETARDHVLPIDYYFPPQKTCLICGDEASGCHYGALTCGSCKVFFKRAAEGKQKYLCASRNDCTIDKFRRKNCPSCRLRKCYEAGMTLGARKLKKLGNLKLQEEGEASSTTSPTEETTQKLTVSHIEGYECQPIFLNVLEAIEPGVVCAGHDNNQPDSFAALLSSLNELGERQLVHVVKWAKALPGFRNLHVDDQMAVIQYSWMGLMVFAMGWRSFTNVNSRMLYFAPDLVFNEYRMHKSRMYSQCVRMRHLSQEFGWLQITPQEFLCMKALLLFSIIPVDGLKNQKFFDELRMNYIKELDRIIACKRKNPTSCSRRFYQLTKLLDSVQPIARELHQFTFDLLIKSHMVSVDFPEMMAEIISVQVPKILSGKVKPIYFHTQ
Description: Ratio of compound EC150 to DHT EC150 for androgen receptor in human MDA-kb2 cells. In kind it is cell-based.

Assay [2] deals with T2, Glucocorticoid receptor (Homo sapiens) (UniProt P04150).
T2 sequence (whole entry): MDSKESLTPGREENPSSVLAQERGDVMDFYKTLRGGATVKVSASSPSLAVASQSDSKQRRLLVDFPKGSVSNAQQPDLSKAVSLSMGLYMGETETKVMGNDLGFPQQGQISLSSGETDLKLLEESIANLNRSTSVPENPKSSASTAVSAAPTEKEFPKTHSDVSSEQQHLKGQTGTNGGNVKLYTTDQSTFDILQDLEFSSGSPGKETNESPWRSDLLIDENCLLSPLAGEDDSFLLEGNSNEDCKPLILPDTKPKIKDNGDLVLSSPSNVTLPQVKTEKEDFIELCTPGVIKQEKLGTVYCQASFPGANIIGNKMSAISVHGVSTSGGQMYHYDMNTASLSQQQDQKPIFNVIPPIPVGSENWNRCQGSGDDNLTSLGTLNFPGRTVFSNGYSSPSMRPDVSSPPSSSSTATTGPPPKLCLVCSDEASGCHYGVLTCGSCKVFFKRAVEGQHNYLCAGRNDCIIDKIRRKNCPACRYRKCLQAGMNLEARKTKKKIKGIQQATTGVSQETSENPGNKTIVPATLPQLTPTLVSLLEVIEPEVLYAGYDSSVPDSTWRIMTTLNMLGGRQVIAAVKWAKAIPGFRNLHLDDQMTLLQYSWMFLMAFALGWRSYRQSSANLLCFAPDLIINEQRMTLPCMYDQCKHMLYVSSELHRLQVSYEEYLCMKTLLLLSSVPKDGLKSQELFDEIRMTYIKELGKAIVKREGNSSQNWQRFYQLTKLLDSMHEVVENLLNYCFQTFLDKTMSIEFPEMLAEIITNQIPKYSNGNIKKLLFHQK
As to the kind of experiment: Ratio of compound EC150 to DHT EC150 glucocorticoid receptor in human MDA-kb2 cells. The assay is classed as cell-based.

Assay [3] concerns the target T1, Androgen receptor (Homo sapiens). As to the kind of experiment: Ratio of compound EC150 to Dex EC150 for androgen receptor in human MDA-kb2 cells. In kind it is cell-based.
For assay [4], the target named is T2, Glucocorticoid receptor (Homo sapiens). Description: Ratio of compound EC150 to Dex EC150 for glucocorticoid receptor in human MDA-kb2 cells. The assay is classed as cell-based.
The target in assay [5] is T1, Androgen receptor (Homo sapiens). The conditions noted are these: MDA-kb2.
Description: Agonist activity at androgen receptor in human MDA-kb2 cells assessed as stimulation of luciferase activity by luciferase reporter gene assay
The target of assay [6] is T2, Glucocorticoid receptor (Homo sapiens). The following applies: MDA-kb2.
The target is the same in assay [7]. As to the kind of experiment: Agonist activity at glucocorticoid receptor in human MDA-kb2 cells assessed as stimulation of luciferase activity by luciferase reporter gene assay in presence of glucocorticoid receptor agonist Dex. In kind it is functional, cell-based.
Assay [8] deals with T3, Androgen receptor (Homo sapiens, UniProt P10275).
T3 sequence (P10275 whole entry): T1 sequence (whole entry)
As to the kind of experiment: Antagonist activity at androgen receptor in human MDA-kb2 cells assessed as inhibition of DHT-induced luciferase activity by luciferase reporter gene assay. Background: In a reporter assay the amount or activity of a reporter protein is the signal.

Assay [9] concerns the target T2, Glucocorticoid receptor (Homo sapiens). Description: Agonist activity at glucocorticoid receptor in human MDA-kb2 cells assessed as stimulation of luciferase activity by luciferase reporter gene assay in presence of androgen receptor agonist DHT. The assay is classed as functional, cell-based.
Assay [10] has as its target T3, Androgen receptor. Description: Antagonist activity at androgen receptor in human MDA-kb2 cells assessed as inhibition of DHT-induced luciferase activity at 100 uM by luciferase reporter gene assay. In kind it is functional, cell-based.
For assay [11], the target named is T1, Androgen receptor (Homo sapiens). The conditions noted are these: MDA-kb2. This is another data set of the same source.
Description: Agonist activity at androgen receptor in human MDA-kb2 cells assessed as stimulation of luciferase activity at 100 uM by luciferase reporter gene assay
Assay [12] concerns the target T2, Glucocorticoid receptor (Homo sapiens). The conditions noted are these: MDA-kb2. The source holds these as a separate data set.
Description: Agonist activity at glucocorticoid receptor in human MDA-kb2 cells assessed as stimulation of luciferase activity at 100 uM by luciferase reporter gene assay
The target is the same in assay [13]. As to the kind of experiment: Agonist activity at glucocorticoid receptor in human MDA-kb2 cells assessed as stimulation of luciferase activity at 0.03 mM by luciferase reporter gene assay in presence of androgen receptor agonist DHT. In kind it is functional, cell-based.

In the case of `COc1ccc2oc(-c3ccccc3)cc(=O)c2c1`, the Ratio was determined as 1400 in [1], 1400 in assay [2], 3.6 in [3] and 3.6 in [4]. Moreover, the EC150 in assay [5] and in [6] was 0.7 µM throughout.

`O=c1cc(-c2ccccc2)oc2cc(O)c(O)c(O)c12`: the outcome in assay [7] was Active. Moreover, the EC150 in [5] and in assay [6] was 18.9 µM in each case.

In the case of `COc1ccc2c(c1)C(=O)CC(c1ccccc1)O2` (stereo not drawn), the IC50 at Androgen receptor [8] is 39.5 µM. In assay [6], this compound had an EC150 of 4.08 µM.

`COc1ccc2c(=O)cc(-c3ccccc3)oc2c1`: the EC150 in [5] and in assay [6] was 21.9 µM each time.

As to `COc1ccc(-c2cc(=O)c3c(O)cc(O)cc3o2)cc1`, the EC150 in assay [5] and in assay [6] was 2.1 µM in each case.

Consider `O=c1cc(-c2ccccc2)oc2cccc(O)c12`, for which the EC150 in assay [5] and in assay [6] was 6 µM each time.

For `O=c1cc(-c2ccc(O)c(O)c2)oc2cc(O)cc(O)c12`, the EC150 in assay [5] and in assay [6] was 18 µM each time.

Take `O=c1cc(-c2ccccc2)oc2cc(O)cc(O)c12` [CHRYSIN]: in assay [9], the result was Active. At Androgen receptor [10], the “AR antagonist activity at 100 uM (active/inactive)” value is “Active”. Moreover, the EC150 in [5] and in [6] was 1.5 µM each time.

On to `O=c1cc(-c2ccccc2)oc2ccccc12` [FLAVONE], for which the IC50 at Androgen receptor [8] and on Androgen receptor [8] (mda-kb2) was 5.9 µM each time. The EC150 in [5] and in assay [6] was 26.1 µM in each case.

In the case of `O=c1c(O)c(-c2ccc(O)c(O)c2)oc2cc(O)ccc12`, the EC150 entry in assay [11] and in assay [12] was “inactive” in each case.

For the compound `Cc1ccc2oc(-c3ccccc3)cc(=O)c2c1`, the EC150 in assay [5] and in assay [6] was 3.6 µM in each case.

`O=C1CC(c2ccccc2)Oc2ccccc21` (stereo not drawn) [FLAVANONE]: the IC50 at Androgen receptor [8] was 20 µM. Moreover, the EC150 in assay [5] and in assay [6] was 380 µM in each case.

For the compound `COc1ccc2c(c1)OC(c1ccccc1)CC2=O` (stereo not drawn), the EC150 entry in assay [11] and in [12] was “inactive” each time.

`O=c1c(O)c(-c2ccccc2)oc2ccccc12` [FLAVONOL]: the IC50 at Androgen receptor [8] was 23.5 µM. Moreover, the EC150 result in assay [11] and in assay [12] was “inactive” in each case.

With `C[C@]12CCC(=O)C[C@@H]1CC[C@@H]1[C@@H]2CC[C@]2(C)[C@@H](O)CC[C@@H]12`, in assay [6], the EC150 stood at 0.0005 µM.

For the compound `O=c1c(O)c(-c2ccccc2)oc2cc(O)cc(O)c12`, the EC150 in assay [5] and in assay [6] was 633 µM each time.

As to `COc1cccc2oc(-c3ccccc3)cc(=O)c12`, at Androgen receptor [8], the IC50 came out at 8.7 µM. Moreover, the EC150 in assay [5] and in assay [6] was 5.5 µM in each case.

`O=c1c(-c2ccc(O)cc2)coc2cc(O)ccc12` [DAIDZEIN]: at Androgen receptor [10], the “AR antagonist activity at 100 uM (active/inactive)” value is “Not Active”. Further, the EC150 in assay [5] and in [6] was 10.1 µM each time.

Turning to `O=c1cc(-c2ccccc2)oc2ccc(Cl)cc12`, the EC150 in assay [5] and in [6] was 12.6 µM in each case.

For the compound `O=c1cc(-c2ccccc2)oc2ccc(O)cc12` [6-HYDROXYFLAVONE], the EC150 in assay [7] came out at 4.1 µM; in [5] it was 7.1 µM; in assay [6], 7.1 µM. Moreover, the outcome in assay [13] was inactive. The “AR antagonist activity at 100 uM (active/inactive)” value at Androgen receptor [10] is listed as “Not Active”.

For the compound `COc1ccc2oc(-c3ccccc3)c(O)c(=O)c2c1`, the EC150 in assay [5] and in assay [6] was 10.3 µM each time.

Consider `O=C1c2ccc(O)cc2OC(c2ccc(O)c(O)c2)C1O` (stereo not drawn), for which the EC150 result in assay [11] and in assay [12] was “inactive” each time.

As for `O=c1cc(-c2ccccc2)oc2cc(O)ccc12`, the EC150 in [5] and in [6] was 3.1 µM throughout.

Turning to `O=c1c(O)c(-c2ccccc2)oc2ccc(O)cc12`, the result in assay [7] was Active. The EC150 in assay [6] worked out at 1.54 µM.

Take `COc1cc(O)c2c(=O)c(-c3ccc(O)cc3)coc2c1` [PRUNETIN]: the “AR antagonist activity at 100 uM (active/inactive)” value on Androgen receptor [10] is listed as “Not Active”. For the same compound, the EC150 in assay [5] and in assay [6] was 3.2 µM in each case.

With `O=C1C[C@@H](c2ccc(O)cc2)Oc2cc(O)cc(O)c21`, the EC150 entry in assay [11] and in [12] was “inactive” each time.

`O=c1c(-c2ccc(O)cc2)coc2cc(O)cc(O)c12` [GENISTEIN]: the IC50 at Androgen receptor [8] was determined as 1300 µM. In addition, the Ratio was 10000 in assay [1], 10000 in [2], 23 in assay [3] and 23 in [4]. The EC150 in [5] and in assay [6] was 4.4 µM throughout.

As for `O=C1CC(c2ccccc2)Oc2ccc(O)cc21` (stereo not drawn), the IC50 at Androgen receptor [8] was found to be 3.3 µM. For the same compound, the EC150 entry in [11] and in [12] was “inactive” in each case.
